Publication PMC10224444, “Novel Perspectives on the Design and Development of a Long-Acting Subcutaneous Raltegravir Injection for Treatment of HIV—In Vitro and In Vivo Evaluation” (Pharmaceutics, 2023)
Several values for one entry are separate records, joined by “and”; a condition that tells them apart may be missing. Equal values may be shown once.

Assays:
[1] = parameters: method as in PMID 33979164; settings: cited from earlier work
[2] = parameters: method as in PMID 33979164; settings: cited from earlier work; remark: listed apart in the source
[3] = parameters: method as in PMID 33979164; settings: pH 7.0, within 1 h; cited from earlier work
[4] = In vitro release test in 50% Tris buffer (pH 7.4, 34 °C), HPLC; assay type: physicochemical; settings: 25 µM probe
Description: (§1) Probes 14–15 and 20–21 stock solutions were prepared at 1000 µM (1 mM) in a 1:1 mixture of MeCN/water, followed by serial dilution with deionised water to give a 50 µM working concentration. Each experiment was run in triplicate after dilution of 0.5 mL of the stock solution with 0.5 mL of PBS (pH 7.4) or Tris buffer (pH 7.4), giving a final assay concentration of 25 µM for the probes. The samples were incubated at 34 °C to mimic the conditions found in SC tissue. Every day, a 2 µL aliquot of each sample was subjected to HPLC analysis using an Agilent 1260 Infinity instrument, with conditions as follows. Column: Agilent ZORBAX Eclipse Plus C18 Rapid Resolution, 3.5 μm (4.6 × 100 mm), pore size (95 Å); column temperature (35 °C). The mobile phases were solvent A: 0.1% TFA in ultrapure H2O and solvent B: 0.1% TFA in MeCN. The injection volume was 2 μL and the flow rate was kept at 1.0 mL/min. The analysis was performed using a gradient elution of 5–100% of solvent B in solvent A over 9 min, then maintained for a further 1 min at two wavelengths: 254 nm and 214 nm. The retention times of CTG and probes 14–15 and 20–21 were 4.13, 4.27, 4.93, 5.55, and 5.71 min, respectively. A calibration curve for the free CTG fluorophore was constructed over the concentration range of 10–100 µM at pH 7.4. The data were fit by linear regression to the equation y = 14.615x − 0.067, where y is the peak area of the analyte and x is the analyte concentration (µM). The correlation coefficient (R2) was computed as 0.999, confirming the linearity of used method under the specified measured concentrations.
(§2) In vitro Release assays for probes 14–15 and 20–21 were conducted using pH and temperature conditions similar to those of SC tissue (pH 7.4 and 34 °C). Test compounds were dissolved in either MeCN/PBS (1:1, pH 7.4) or MeCN/Tris buffer (1:1, pH 7.4) at 25 µM, then incubated at 34 °C. Aliquots were taken daily and analysed by HPLC and LC-MS until complete fluorophore release was achieved. HPLC was preferred over fluorometric-based assay to study the stability of the synthesised probes because of the bleaching effect that may occur to the fluorophore over the long analysing periods. Photobleaching is the inability of the fluorophore to fluoresce due to the fluorophore instability upon repeated exposure to light over long periods. It can be a particular problem for fluorescence-based assays, thereby rationalising the choice of HPLC in the current work.

[5] = In vitro release test in 50% PBS (pH 7.4, 34 °C), HPLC; assay type: physicochemical; settings: for half-life: 50% PBS pH 7.4, 25 µM CTG probes, 100 µM prodrug 25, calculated as 0.69/kobs, read-out: t½ (half-life of payload release) (converted)
Description: as §1
Likewise, a test solution of prodrug 25 was incubated in 50% PBS at 100 µM final concentration, and analysed using the same HPLC method but with detection at 254 nm only. A higher concentration of 25 was used due to its relatively weaker absorption at 254 nm, compared with CTG. The retention times of RAL and prodrug 25 were 4.47 and 5.55 min, respectively. A calibration curve of RAL was constructed over the range 50–1000 µM. The data were fit by linear regression as before to give the equation y = 5.1961x − 20.064, with a similar goodness of fit (R^2 ≥ 0.999).
as §2
Similarly to the assays above, prodrug 25 (100 µM) was incubated in 50% PBS at 34 °C, and aliquots analysed daily by HPLC and LC-MS until full RAL release was achieved.

[6] = Pharmacokinetic study after single SC injection in BALB/c mice; assay type: in vivo; settings: mouse, plasma level of the dosed compound, single SC 30 mg/kg, male BALB/c mice, n = 3
Description: The pharmacokinetic profile of prodrug 25 was evaluated in mice, in a study undertaken at WuXi AppTec. Prodrug 25 was dissolved in a sterile vehicle of DMSO/Solutol HS15/water (10:10:80) to give a clear solution with a final concentration of 6 mg/mL. The same procedure was used to prepare a 6 mg/mL solution of RAL as a control. Six male BALB/c mice were used, each weighing 18–25 g and aged between 7–9 weeks (three per group). A single 30 mg/kg dose of prodrug 25 was administered to each animal in the treatment group (subcutaneously, in the thoracic region). Similarly, RAL (30 mg/kg) was administered to each animal in the control group. Blood samples were taken at the time points indicated below, up to the experiment endpoint (96 h).
For each animal, blood samples (30 μL each) were collected from the submandibular or saphenous vein over a period of 96 h, at the following time points: zero/pre-dose; then 0.25, 0.5, 1, 2, 3, 4, 5, 6, 24, 48, and 96 h. All samples were transferred into pre-chilled commercial K2EDTA tubes and placed on wet ice until processing for plasma, which was obtained by centrifugation at 4 °C and 3200× g for 10 min, within 30 min of sampling. The plasma samples were transferred to polypropylene tubes, snap-frozen on dry ice, and kept at −70 ± 10 °C until LC-MS/MS analysis.
An LC-MS/MS method was developed to measure the concentrations of prodrug 25 and RAL in the biological matrix. Two mobile phases were used: mobile phase A (0.025% NH4OH and 2 mM NH4OAc in 95:5 v/v water/MeCN) and mobile phase B (0.025% NH4OH and 2 mM NH4OAc in 5:95 v/v water/MeCN). A UPLC method was performed using an LC-MS/MS-BM Triple Quad 6500 plus system with an ACQUITY UPLC BEH C18 1.7 μm column (2.1 × 50 mm) at a flow rate of 0.65 mL/min. The assay time was 2.5 min, and the solvent B composition was as follows: 10–100% (0.2–1.4 min), 30% (1.41–1.7 min), 95% (2.0–2.4 min), and 10% (2.41–2.5 min). The retention times for the prodrug, RAL and the internal standards (tolbutamide and verapamil) were 0.76, 1.04, 0.66, and 0.97 min, respectively. Quantification was performed by monitoring the transition of m/z 835.3 [M+H]^+ to 457.2 for prodrug 25, representing the cyclisation of the linker with the amidic RAL such as in side-product 22; whereas for RAL, the transition m/z 445.2 [M+H]^+ to 361.2 was followed, representing the loss of the 2-methyl-1,3,4-oxadiazole moiety as the main fragmentation pathway. For the internal standards, the m/z transition from 455.2 [M+H]^+ to 164.9 was used for verapamil (corresponding to formation of the verapamil fragment [CH2CH2-(3,4-dimethoxy phenyl)]^+), and for tolbutamide, the transition of m/z of 271.1 [M+H]^+ to 155.1 was used, representing formation of the [CH3-Ph-SO2]^+ fragment. […] The method was linear over the measured standard concentrations for 25 and RAL. The mean plasma concentration was determined for 25 and RAL (as metabolite or control) at each sampling time point. Pharmacokinetic parameters were then calculated by non-compartmental analysis of plasma concentration/time profiles using the Phoenix WinNonlin 6.3 software. The computed parameters were as follows: peak plasma concentration (Cmax); the time over which the initial concentration is reduced to half (t½); area under the plasma concentration versus time curve from time zero to 96 h (AUC 0–96 h); and mean residence time from time zero to 96 h (MRT 0–96 h).
Since in vitro models are not fully predictive of in vivo pharmacokinetics, especially for prodrugs, assessment of these characteristics still relies on in vivo studies. Therefore, the pharmacokinetic profile of prodrug 25 was evaluated in mice. Compound 25 and the control (RAL) were dissolved in DMSO/Solutol HS15/water (10:10:80). For a single SC injection of 25 (30 mg/kg) in BALB/c mice (n = 3), the plasma concentrations of prodrug and released RAL were measured at the following time points: zero/pre-dose; then 0.25, 0.5, 1, 2, 3, 4, 5, 6, 24, 48, and 96 h. […]

[7] = 50% PBS, pH 7.4, 34 °C, 25 µM probe, 1 d
[8] = 50% PBS, pH 7.4, 34 °C, 25 µM probe

| Structure (SMILES) | CTG release after 1 d in 50% Tris buffer [4] [%] | half-life ([5]; 50% PBS buffer) [days] | CTG fluorophore released after 1 d [5, 7] [%] | CTG fluorophore released after 2 d [5, 8] [%] | half-life [5] [days] | time to maximal release of payload ([5]; 50% PBS, pH 7.4, 34 °C) [days] | other results |
| --- | --- | --- | --- | --- | --- | --- | --- |
| CNCCOC(=O)OCOc1c(-c2ccc(Oc3ccc(OC(F)(F)F)cc3)cc2F)c(C)nc2cc(OC)c(Cl)cc12 [Compound 1] | – | – | – | – | – | – | oral bioavailability compared with the parent compound [1]: enhanced; aqueous solubility compared with the parent compound [2]: enhanced; parent compound released within 1 h [3]: > 90% |
| C#CCCCNCCCCCOC(=O)OCOc1ccc2c(-c3ccc(C(=O)O)cc3C)c3ccc(=O)cc-3oc2c1.Cl [Compound 14, N-(5-(((((9-(4-Carboxy-2-methylphenyl)-3-oxo-3H-xanthen-6-yl)oxy)methoxy)carbonyl)oxy)pentyl)pent-4-yn-1-aminium chloride] | 89.2 | 1.69 | 36 | 58 | – | – | CTG fluorophore released after 9 d ([5]; 50% PBS, pH 7.4, 34 °C, 25 µM probe, 9 d): 98% |
| C#CCCCNCCCCCCOC(=O)OCOc1ccc2c(-c3ccc(C(=O)O)cc3C)c3ccc(=O)cc-3oc2c1.Cl [Compound 15, 6-(((((9-(4-Carboxy-2-methylphenyl)-3-oxo-3H-xanthen-6-yl)oxy)methoxy)carbonyl)oxy)-N-(pent-4-yn-1-yl)hexan-1-aminium chloride] | 86.2 | – | 29 | 50 | 1.98 | – | CTG fluorophore released after 10 d ([5]; 50% PBS, pH 7.4, 34 °C, 25 µM probe, 10 d): 98% |
| Cc1cc(C(=O)O)ccc1-c1c2ccc(=O)cc-2oc2cc(OCOC(=O)OCCCCCNCCCc3cn(CCP(=O)(O)O)nn3)ccc12.Cl [Compound 20, 5-(((((9-(4-Carboxy-2-Methylphenyl)-3-Oxo-3H-Xanthen-6-yl)Oxy)Methoxy)Carbonyl)Oxy)-N-(3-(1-(2-Phosphonoethyl)-1H-1,2,3-triazol-4-yl)Propyl)Pentan-1-Aminium Chloride] | 82.5 | – | 25 | 41 | 2.88 | – | CTG fluorophore released after 13 d ([5]; 50% PBS, pH 7.4, 34 °C, 25 µM probe, 13 d): 98% |
| Cc1cc(C(=O)OC(C)(C)C)ccc1-c1c2ccc(=O)cc-2oc2cc(OCOC(=O)OCCCCCCNCCCc3cn(CCP(=O)(O)O)nn3)ccc12.Cl [Compound 21, 6-(((((9-(4-(Tert-Butoxycarbonyl)-2-Methylphenyl)-3-Oxo-3H-Xanthen-6-yl)Oxy)Methoxy)Carbonyl)Oxy)-N-(3-(1-(2-Phosphonoethyl)-1H-1,2,3-Triazol-4-yl)Propyl)Hexan-1-Aminium Chloride] | 80.9 | – | 20 | 33 | 3.15 | 15 | CTG fluorophore released after 15 d ([5]; 50% PBS, pH 7.4, 34 °C, 25 µM probe, 15 d): 98% |
| Cc1nnc(C(=O)NC(C)(C)c2nc(C(=O)NCc3ccc(F)cc3)c(OCOC(=O)OCCCCCCNCCCc3cn(CCP(=O)(O)O)nn3)c(=O)n2C)o1 [Compound 25, 6-(((((4-((4-Fluorobenzyl)Carbamoyl)-1-Methyl-2-(2-(5-Methyl-1,3,4-Oxadiazole-2-Carboxa-Mido)Propan-2-Yl)-6-Oxo-1,6-Dihydropyrimidin-5yl)Oxy)Methoxy)Carbonyl)Oxy)-N-(3-(1-(2-Phosphonoethyl)-1H-1,2,3-Triazol-4-Yl)Propyl)Hexan-1-Aminium Chloride] | – | 19.3 | – | – | – | 45 | release kinetics (order) ([5]; 50% PBS, pH 7.4): first-order kinetics; RAL released after 1 d ([5]; 50% PBS, pH 7.4, 34 °C, 100 µM prodrug, 1 d): 8.4%; RAL released after 10 d ([5]; 50% PBS, pH 7.4, 34 °C, 100 µM prodrug, 10 d): 31.5%; RAL released after 45 d (plateau) ([5]; 50% PBS, pH 7.4, 34 °C, 100 µM prodrug, 45 d): 82% and 82.1%; degree of side-product (27) formation ([5]; 50% PBS, pH 7.4, 34 °C, hydrolysis of RAL oxadiazole, accounts for unreleased RAL): 15.2%; Cmax [6]: 4550 ng/mL; Tmax [6]: 15 min; AUC(0-t) ([6]; read-out: AUC 0–96 h): 3270 ng·h/mL; half-life ([6]; read-out: t½ (converted)): 51 min |
